Measurements published in patent US20230190924A1, “ANTIGEN OF ALLERGY AND EPITOPE THEREOF” (HOYU CO., LTD., priority 2017, published 2023).

tested on: IgE antibody in the serum of an egg allergic patient; assay: Immunoblotting of two-dimensional electrophoresis of chicken egg (raw egg) yolk proteins with patient serum; assay type: binding, human; settings: serum of egg-allergic patient 1 (food-dependent exercise-induced anaphylaxis), versus non-egg-allergic serum
Method: Identification of antigens by immunoblotting was carried out by taking all the steps up to the step of “Second-dimensional SDS-PAGE” as described above in Example 1, followed by the steps of “Transfer to membrane”, “Immunoblotting” and “Analysis” as described below.
Transfer to membrane was done using the following transfer system and transfer buffer. • Transfer system: XCell SureLock Mini-Cell and XCell II Blot Module (produced by Life Technologies) • Transfer buffer: NuPAGE Transfer Buffer (X20) (produced by Life Technologies), used in a form diluted 20-fold with milliQ water.
To be specific, proteins in the two-dimensional electrophoresis gels were transferred to a membrane (PVDF membrane) according to the following procedure.
(1) The PVDF membrane was immersed in 100% methanol followed by milliQ water, and then moved into the transfer buffer to hydrophilize the PVDF membrane.
(2) After sponge, filter paper, gels treated by second-dimensional SDS-PAGE, the hydrophilized PVDF membrane, filter paper, and sponge were put in place in this order, the transfer system was energized at a constant voltage of 30 V for one hour.
Immunoblotting of the membrane was carried out using, as a primary antibody, a serum sample from patient (patient 1) with an egg allergy or a serum sample from a non-egg-allergic subject. This egg-allergic patient was a patient diagnosed with food-dependent exercise-induced anaphylaxis (FDEIA) caused by chicken eggs.
Immunoblotting of the membrane was carried out according to the following procedure. • (1) The transferred membrane was shaken in a 5% skim milk/PBST solution (a PBS buffer containing 0.1% Tween 20 nonionic surfactant) at room temperature for one hour. • (2) The membrane was left to stand in a solution of 5% primary antibody serum in 5% skim milk/PBST at room temperature for one hour. • (3) The membrane was washed with a PBST solution (5 min.×3 times). • (4) The membrane was left to stand in a 1:5000 dilution of the secondary antibody, anti-human IgE-HRP (horseradish peroxidase), with a 5% skim milk/PBST solution at room temperature for one hour. • (5) The membrane was washed with a PBST solution (5 min.×3 times). • (6) The membrane was left to stand in Pierce Western Blotting Substrate Plus (produced by Thermo) for 5 minutes. […]
The immunoblots obtained with the serum from the egg-allergic patient were compared with those obtained with the control serum from the non-egg-allergic subject. By immunoblotting of the proteins contained in the raw yolk using the serum from the egg-allergic patient (FIG. 2), three spots were detected, which are different from the spots detected when the serum of the non-egg-allergic subject was used and different from those of the known chicken egg allergen proteins.
Identification of antigens by immunoblotting was carried out using the sera of three other egg-allergic patients (patient 2, patient 3 and patient 4) in the same manner as in Example 2. By immunoblotting of the proteins contained in the raw yolk using the serum from the egg-allergic patients (FIG. 4 for patient 2, FIG. 5 for patient 3, and FIG. 6 for patient 4), spots were detected, which are different from the spots detected when the serum of the non-egg-allergic subject was used and different from those of the known chicken egg allergen proteins. To be specific, spots 4 to 8 for patient 2, spots 9 and 10 for patient 3, and spot 11 for patient 4 were detected.

| specific reaction/binding of serum IgE with spot in immunoblot | Molecule |
| --- | --- |
| specifically reacted | vitellogenin-3 (protein) SIIENLKARCSVSQNMITTFNGVEFNYSMPANCYHILAQDCSPELKFLVMMKRLGESADLTAISVRLASHEVDMYVSNGLIQLKINGVQTPTDVPYTSKSGLLISSEKEGLSLKAPEYGVEKLYYDRRKLEIRVAFWMVGKTCGICGKYDAEKKREYQMPSGYLAKDAVSFAQSWVISEDTCTGACKLQRKFVKIEKPVAFNKKASKCFSIEPVLRCAEGCSATRTVPVSVGFHCVPSDSTLELEEEQVRLDQKSEDLVSRVDAHTACSCAQQLCSA |

tested on: IgE antibodies from patients; assay: Epitope mapping (2) overlapping (10-amino-acid peptides) and (3) alanine scanning on peptide arrays; assay type: binding, human; settings: overlapping peptides with flanking sequence
In short: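 Overlapping 10-mer peptides shifted by one residue, and alanine-substituted peptides, spotted on cellulose and probed with patient and non-egg-allergic sera; IgE binding read by anti-human IgE-HRP chemiluminescence. Signal expressed relative to parent sequence and graded in bands from <20% (no binding) to ≥90% (retained binding).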

| Molecule | binding to IgE antibodies from patients, sequence comprising a region amino-terminally adjacent to the epitope | binding to IgE antibodies from patients, sequence comprising a region carboxy-terminally adjacent to the epitope |
| --- | --- | --- |
| SEQ ID NO: 605: sequence comprising a region amino-terminally adjacent to epitope 38 (LVNYSPTKG; epitope) | binding to IgE antibodies from patients | – |
| SEQ ID NO: 613: sequence comprising a region amino-terminally adjacent to epitope 39 (ANELLDR; epitope) | binding to IgE antibodies from patients | – |
| SEQ ID NO: 622: sequence comprising a region amino-terminally adjacent to epitope 40 (GRYLHLAAV; epitope) | binding to IgE antibodies from patients | – |
| SEQ ID NO: 623: sequence comprising a region amino-terminally adjacent to epitope 40 (GRYLHLAAVN; epitope) | binding to IgE antibodies from patients | – |
| SEQ ID NO: 632: sequence comprising a region carboxy-terminally adjacent to epitope 41 (QELLFGRLDK; epitope) | – | binding to IgE antibodies from patients |
| SEQ ID NO: 644: sequence comprising a region amino-terminally adjacent to epitope 42 (QELLFGRL; epitope) | binding to IgE antibodies from patients | – |
| SEQ ID NO: 660: sequence comprising a region carboxy-terminally adjacent to epitope 46 (DSDSASGET; epitope) | – | binding to IgE antibodies from patients |
| SEQ ID NO: 665: sequence comprising a region carboxy-terminally adjacent to epitope 46 (SDSASGET; epitope) | – | binding to IgE antibodies from patients |
| SEQ ID NO: 676: sequence comprising a region carboxy-terminally adjacent to epitope 47 (PIEKIQVTI; epitope) | – | binding to IgE antibodies from patients |

Results, then the molecule that gave them:

| binding to IgE antibodies from patients, sequence comprising a region amino-terminally adjacent to the epitope | binding to IgE antibodies from patients, sequence comprising a region carboxy-terminally adjacent to the epitope | Molecule |
| --- | --- | --- |
| binding to IgE antibodies from patients | – | SEQ ID NO: 604: sequence comprising a region amino-terminally adjacent to epitope 38 (LVNYSPTK; epitope) |
| – | binding to IgE antibodies from patients | SEQ ID NO: 609: sequence comprising a region carboxy-terminally adjacent to epitope 38 (LQMSSSV; epitope) |
| – | binding to IgE antibodies from patients | SEQ ID NO: 624: sequence comprising a region carboxy-terminally adjacent to epitope 40 (KLEFLLSKK; epitope) |
| – | binding to IgE antibodies from patients | SEQ ID NO: 631: sequence comprising a region carboxy-terminally adjacent to epitope 41 (QELLFGRLD; epitope) |
| binding to IgE antibodies from patients | – | SEQ ID NO: 657: sequence comprising a region amino-terminally adjacent to epitope 46 (VPDIMKMSFD; epitope) |
| binding to IgE antibodies from patients | – | SEQ ID NO: 672: sequence comprising a region amino-terminally adjacent to epitope 47 (MSFKPVYSDV; epitope) |

same assay, conditions: procedures (B) overlapping and (C) alanine scanning

| Molecule | region within the epitope important for binding to IgE antibodies from patients |
| --- | --- |
| SEQ ID NO: 616: region in epitope 39 (LLDRKVALT; epitope) | important for binding |
| SEQ ID NO: 619: region in epitope 39 (DRKVALTDMT; epitope) | important for binding |
| SEQ ID NO: 627: region in epitope 41 (SGYLKMFG; epitope) | important for binding |
| SEQ ID NO: 630: region in epitope 41 (YLKMFGQELL; epitope) | important for binding |
| SEQ ID NO: 641: region in epitope 41 (SGYLKMF; epitope) | important for binding |
| SEQ ID NO: 647: region in epitope 42 (RLDKDTLQ; epitope) | important for binding |
| SEQ ID NO: 649: region in epitope 42 (DTLQNVLQ; epitope) | important for binding |
| SEQ ID NO: 658: region in epitope 46 (MKMSFDSDS; epitope) | important for binding |
| SEQ ID NO: 659: region in epitope 46 (MSFDSDSASG; epitope) | important for binding |
| SEQ ID NO: 663: region in epitope 46 (PDIMKMSFDS; epitope) | important for binding |
| SEQ ID NO: 664: region in epitope 46 (MSFDSDS; epitope) | important for binding |
| SEQ ID NO: 669: region in epitope 47 (YSDVPIEKI; epitope) | important for binding |

The next lines start with the values.

| region within the epitope important for binding to IgE antibodies from patients | Molecule |
| --- | --- |
| important for binding | SEQ ID NO: 608: region in epitope 38 (PTKGYLQMSS; epitope) |
| important for binding | SEQ ID NO: 617: region in epitope 39 (LLDR; epitope) |
| important for binding | SEQ ID NO: 636: region in epitope 41 (SGYLKMFG; epitope) |
| important for binding | SEQ ID NO: 642: region in epitope 41 (GQELL; epitope) |
| important for binding | SEQ ID NO: 674: region in epitope 47 (YSDVPIEK; epitope) |
| important for binding | SEQ ID NO: 680: region in epitope 47 (SFKPVY; epitope) |
